Measurements taken from ChEMBL document CHEMBL5356970, “Syntheses of the ω-pyridinium-containing very-long-chain ceramides PyrCer(24:1(15Z)) and PyrCer(24:0) and their anticancer activity” (Bioorg Med Chem Lett, 2024).

system: HepG2; assay: Anticancer activity against human HepG2 cells assessed as reduction in cell survival; assay type: functional, cell-based

Question: `CCCCCCCCCCCCC/C=C/[C@@H](O)[C@H](CO)NC(=O)CCCCCCCCCCCCC/C=C\CCCCCCCC[n+]1ccccc1` was tested. Which IC50 did it give?
Answer: 1 µM

Question: How did the IC50 turn out when `CCCCCCCCCCCCC/C=C/[C@@H](O)[C@H](CO)NC(=O)CCCCCCCCCCCCCCCCCCCCCCC` was run?
Answer: 189 µM

Question: How did the IC50 turn out when `CCCCCCCCCCCCC/C=C/[C@@H](O)[C@H](CO)NC(=O)CCCCCCCCCCCCCCCCCCCCCCC[n+]1ccccc1` was run?
Answer: 9.9 µM

Question: For `CCCCCCCC/C=C\CCCCCCCCCCCCCC(=O)N[C@@H](CO)[C@H](O)/C=C/CCCCCCCCCCCCC`, which IC50 is on record?
Answer: > 200 µM
